Reference: patent US20110077270A1, “Compositions and Methods for Treating Ocular Inflammation with Lower Risk of Increased Intraocular Pressure” (priority 2009, published 2011)
“And” between values parts separate entries of the source, which are not always exact repeats. Equal values may be shown once. Read-outs that look alike come from different tables or passages of the source. Each block holds one molecule with its values, some of them ahead of it.

Columns and labels:
[1] = system: rabbit paracentesis model; assay: Pupillary diameter measurement, rabbit paracentesis model; assay type: in vivo; conditions: individual eye; for Pupillary diameter T1: −180 min: 50 μl drops, basal; for Pupillary diameter T2: −5 min: 5 min before first paracentesis; for Pupillary diameter T3: +115 min: 5 min before second paracentesis; for Pupillary diameter Δ(T3 − T1): +115 min minus −180 min
Procedure: (§1) Each rabbit was placed in a restraint device and tagged with the alphanumeric code. The formulations were instilled (50 μl) into the conjunctival sac of both eyes 180, 120, 90 and 30 min before the first paracentesis; then 15, 30, 90 min after the first paracentesis. To perform the first paracentesis the animals were anaesthetized by intravenous injection of 5 mg/kg Zoletil® (Virbac; 2.5 mg/kg tiletamine HCl and 2.5 mg/kg zolazepam HCl) and one drop of local anesthetic (Novesina®, Novartis) was administered to the eye. Anterior chamber paracentesis was performed with a 26 G needle attached to a tuberculin syringe; the needle was introduced into the anterior chamber through the cornea, taking care not to damage the tissues. Two hours after the first paracentesis, the animals were sacrificed with 0.4 ml Tanax® (Intervet International B.V.) and the second paracentesis was performed. About 100 μl of aqueous humor were removed at the second paracentesis. Aqueous humor was immediately split in four aliquots and stored at −80° C. until analysis. Then both eyes were enucleated and the iris-ciliary body was carefully excised, placed in polypropylene tubes, and stored at −80° C. until analysis.
The pupillary diameter of both eyes was measured with a Castroviejo caliper 180 min and 5 min before the first paracentesis and 5 min before the second paracentesis.

[2] = system: myocilin protein in CM of monkey TM cells; assay: Myocilin protein in conditioned media of monkey TM cells (Western blot); assay type: cell-based, rhesus monkeys (Macaca mulatta); conditions: for EC50: nine monkey TM cell strains; for Efficacy ± SE (weighted average; %): estimated efficacy at 300 nM for inducing myocilin protein expression, normalized to DEX (100%), nine experiments (one per strain)
Procedure: For each study, up to nine TM cell strains, each derived from an individual monkey, were tested separately. Cells were thawed and seeded into 12- or 48-well clusters (Falcon, BD Biosciences; 150,000 and 30,000 cells/well, respectively) in proliferation medium. When cells were 75% to 90% confluent proliferation medium was replaced by a 5:4 mixture of HESFM and Dulbecco's MEM, respectively, supplemented with 10% FBS, with added taurine, ascorbic acid phosphate, glutathione, and antibiotic as for proliferation medium (above), and with 2.72 g/L glucose and 1.72 g/L fructose. At confluence, the medium was changed to Dulbecco's MEM, containing 10% FBS^40, ascorbic acid phosphate, antibiotic, 2.72 g/L glucose and 1.72 g/L fructose. Cells were maintained as stable, confluent monolayers in this latter medium for 4 to 7 days before experimental treatments commenced.
All treatments, including media for vehicle control samples, contained a final DMSO concentration of 0.1% (v/v) across the concentration ranges selected. Treatments lasted 96 hours, with one exchange of medium on the third treatment day. The final 48-hr conditioned media (“CM”) samples were collected in their entirety (0.5 ml), centrifuged briefly to remove particulates, aliquoted, and stored at −20° C. until thawed for analysis.
Undiluted CM was combined with denaturing 4× sample buffer containing 2% SDS, and samples were loaded at equivalent protein content onto 4-20% Tris-HCl polyacrylamide gels (BioRad, Hercules, Calif.). After electrophoresis, proteins underwent wet transfer to […] nitrocellulose (BioRad) for immunoblotting. The filters were blocked with 5% (w/v) nonfat dry milk (BioRad) in Tris-buffered saline plus 0.02% (v/v) Tween-20 (“TBST”; Tween-20 from Calbiochem, San Diego, Calif.), and incubated with a 1:2000 dilution (from 200 μg/ml) of goat anti-recombinant human myocilin antibody (R&D Systems, Minneapolis, Minn.) in blocking buffer, overnight at 4° C. After washing in TBST, the filters were incubated with a 1:25,000 dilution (from 0.8 mg/ml) of horseradish peroxide-conjugated mouse anti-goat IgG (H+L) (Pierce Biotechnology, Rockford, Ill.) in blocking buffer, for 90 minutes at room temperature. After washing in TBST, the blots were developed in SuperSignal® West Dura Extended Duration Substrate (Pierce) for chemiluminescent detection. Bands corresponding to myocilin were digitally captured and stored using a FluorChem Imager (Alpha-Innotech, San Leandro, Calif.), with all blots receiving equal exposure/capture times. The imager system software was then used to calculate pixel density for equivalent rectangular areas incorporating the bands.
Data underwent Box-Cox transformations for one- or two-way analysis of variance (ANOVA), followed by the Tukey-Kramer test, using JMP software (SAS, Cary, N.C.). The specific transformations used for analyses are mentioned in the figure legends. For each set of triplicate samples from the individual monkey TM cell strains tested, Western blot densitometry values for myocilin protein detected in CM (as geometric means), and relative abundance of myocilin mRNA (as geometric means), were plotted as a function of drug concentrations. P-values less than 0.05 were considered statistically significant. Dose-response curve data were fitted to a re-parameterized four-parameter logistic equation using similar methodology to that previously described, and these equations permitted estimation of the EC50 values±95% confidence intervals, for each drug treatment.

[3] = system: leukocytes (PMN) in aqueous humor; assay: Leukocytes (PMN) measurement in aqueous humor, rabbit paracentesis model; assay type: in vivo; conditions: second paracentesis; for PMN numbers in aqueous humor, Mean: group mean; for PMN numbers in aqueous humor: individual eye
Procedure: as §1
For the determination of the number of leukocytes we used a haemocytometer (Improved Neubauer Chamber; Bright-line, Hausser Scientific) and a Polyvar 2 microscope (Reichert-Jung).

[4] = system: PGE2 in the aqueous humor; assay: Prostaglandin E2 (PGE2) measurement in aqueous humor, rabbit paracentesis model; assay type: in vivo; conditions: second paracentesis; for PGE2 level in aqueous humor, Mean: group mean; for PGE2 level in aqueous humor: individual eye
Procedure: as §1
For the quantitative determination of PGE2 in the aqueous humor we used the PGE2 Immunoassay kit (R&D Systems; Cat. No. KGE004; Lot. No. 240010). Eleven microliters or 16 μl of aqueous humor were diluted to 110 μl or 160 μl with the calibrator diluent solution provided with the kit. One hundred microliters of samples and of standards were load into a 96-well plate and recorded in a plate layout. Samples were treated following the assay procedure described in the kit. A microplate reader (GDV, Italy; model DV 990 B/V6) set at 450 nm (wavelength correction at 540 nm) was used for making the calibration and analyzing the samples.

[5] = 0.1% topical formulation, listed as BOL
[6] = 0.5% topical formulation, listed as BOL
[7] = 1% topical formulation, listed as BOL
[8] = Primates, expression of myocilin protein, weighted averages, read-out: EC50 ± SE
[9] = Primates, 96 hours treatment, read-out: EC50, myocilin protein expression

- EC50 [2, 8]: 21 ± 4.28 nM
- EC50 [2, 9]: 21 nM
SMILES: Cc1ccc2c(NCC(O)(CC(C)(C)c3cc(F)cc4c3OCC4)C(F)(F)F)cccc2n1 (stereo not shown) [BOL-303242-X]
- Pupillary diameter T1: −180 min [1, 5]: 6.5 mm (4×) and 7.0 mm (3×) and 7.5 mm
- Pupillary diameter T2: −5 min [1, 5]: 6.5 mm (3×) and 7.0 mm (4×) and 7.5 mm
- Pupillary diameter T3: +115 min [1, 5]: 5.0 mm (2×) and 6.0 mm (3×) and 6.5 mm and 5.5 mm (2×)
- Pupillary diameter Δ(T3 − T1) [1, 5]: −1.5 mm (4×) and −0.5 mm (2×) and −1.0 mm (2×)
- Pupillary diameter T1: −180 min [1, 6]: 8.0 mm (3×) and 7.0 mm (3×) and 7.5 mm (2×)
- Pupillary diameter T2: −5 min [1, 6]: 8.0 mm (3×) and 7.0 mm (4×) and 7.5 mm
- Pupillary diameter T3: +115 min [1, 6]: 6.5 mm (4×) and 6.0 mm (2×) and 7.0 mm (2×)
- Pupillary diameter Δ(T3 − T1) [1, 6]: −1.5 mm (2×) and −0.5 mm (2×) and −1.0 mm (4×)
- Pupillary diameter T1: −180 min [1, 7]: 6.0 mm (3×) and 6.5 mm (5×)
- Pupillary diameter T2: −5 min [1, 7]: 6.0 mm (2×) and 6.5 mm (4×) and 7.0 mm (2×)
- Pupillary diameter T3: +115 min [1, 7]: 5.5 mm (2×) and 5.0 mm (4×) and 6.0 mm (2×)
- Pupillary diameter Δ(T3 − T1) [1, 7]: −0.5 mm (3×) and −1.5 mm (2×) and −1.0 mm (3×)
- Myocilin protein released by cultured monkey TM cells compared to DEX ([2]; 3 to 300 nM): significantly lower levels of myocilin protein
- Emax ([2]; Primates, read-out: Maximal efficacy for myocilin protein accumulation, relative to that observed after DEX treatment, computed across all nine TM cell strains): ~50%
- Efficacy ± SE (weighted average; %) [2]: 53.12 ± 2.20%
- PMN numbers in aqueous humor, Mean ([3]; 0.1% topical formulation): 28.333 number/μl
- PMN numbers in aqueous humor [3, 5]: 20 number/μl (4×) and 40 number/μl and 50 number/μl
- PMN numbers in aqueous humor, Mean ([3]; 0.5% topical formulation): 21.250 number/μl
- PMN numbers in aqueous humor [3, 6]: 40 number/μl (2×) and 20 number/μl (3×) and 10 number/μl (3×)
- PMN numbers in aqueous humor, Mean ([3]; 1% topical formulation): 28.750 number/μl
- PMN numbers in aqueous humor [3, 7]: 30 number/μl (3×) and 20 number/μl (3×) and 40 number/μl (2×)
- PGE2 level in aqueous humor, Mean ([4]; 0.1% topical formulation): 1.452 ng/mL
- PGE2 level in aqueous humor [4, 5]: 1.62 ng/mL and 1.88 ng/mL and 2.15 ng/mL and 0.70 ng/mL and 1.34 ng/mL and 1.03 ng/mL
- PGE2 level in aqueous humor, Mean ([4]; 0.5% topical formulation): 1.384 ng/mL
- PGE2 level in aqueous humor [4, 6]: 2.31 ng/mL and 2.59 ng/mL and 0.53 ng/mL and 0.75 ng/mL and 0.80 ng/mL and 1.62 ng/mL and 1.09 ng/mL
- PGE2 level in aqueous humor, Mean ([4]; 1% topical formulation): 2.168 ng/mL
- PGE2 level in aqueous humor [4, 7]: 0.50 ng/mL and 1.87 ng/mL and 1.71 ng/mL and 4.04 ng/mL and 1.11 ng/mL and 3.78 ng/mL

- EC50 [2, 8]: 14.6 ± 2.65 nM
- EC50 [2, 9]: 14.6 nM
SMILES: C[C@@H]1C[C@H]2[C@@H]3CCC4=CC(=O)C=C[C@]4(C)[C@@]3(F)[C@@H](O)C[C@]2(C)[C@@]1(O)C(=O)CO [Dex, dexamethasone, reference compound]
- Pupillary diameter T1: −180 min ([1]; 0.1% topical formulation): 6.0 mm and 7.0 mm (2×) and 5.5 mm (2×) and 6.5 mm (3×)
- Pupillary diameter T2: −5 min ([1]; 0.1% topical formulation): 5.5 mm and 6.5 mm (3×) and 6.0 mm (2×) and 7.0 mm and 7.5 mm
- Pupillary diameter T3: +115 min ([1]; 0.1% topical formulation): 5.5 mm (3×) and 6.0 mm (2×) and 4.5 mm and 5.0 mm and 6.5 mm
- Pupillary diameter Δ(T3 − T1) ([1]; 0.1% topical formulation): −0.5 mm (3×) and −1.5 mm (2×) and 0.5 mm and 0.0 mm and −2.0 mm
- Myocilin protein level over control ([2]; 300 nM, one of the monkey TM cell strains, CM of second 48-hour period): 1233%
- Efficacy ± SE (weighted average; %) [2]: 100 ± 6.09%
- PMN numbers in aqueous humor ([3]; 0.1% topical formulation): 20 number/μl (3×) and 50 number/μl and 40 number/μl and 30 number/μl
- PGE2 level in aqueous humor, Mean ([4]; 0.1% topical formulation): 2.263 ng/mL
- PGE2 level in aqueous humor ([4]; 0.1% topical formulation): 2.51 ng/ml and 2.32 ng/ml (2×) and 2.10 ng/ml and 3.03 ng/ml and 1.30 ng/ml
